Data from paper PMC8459971, “Evaluation of the hepatotoxicity of the novel GPR40 (FFAR1) agonist CPL207280 in the rat and monkey” (PLoS ONE, 2021).
Read-outs that look alike come from different tables or passages of the source. Marks after values point to notes of the source that are not given here.

Assays:
[1] = cited from earlier work; for AUC24h (Mean) / Cmax (Mean): rat; for exposure in plasma (AUC): rats
NTCP = biological target: T1, NTCP (Homo sapiens, UniProt Q14973); conditions: read-out: Inhibition of NTCP, previously reported IC50; cited from earlier work
T1 construct: expressed in transfected cells; host or cells: HEK cells
T1 sequence (Q14973 1-349): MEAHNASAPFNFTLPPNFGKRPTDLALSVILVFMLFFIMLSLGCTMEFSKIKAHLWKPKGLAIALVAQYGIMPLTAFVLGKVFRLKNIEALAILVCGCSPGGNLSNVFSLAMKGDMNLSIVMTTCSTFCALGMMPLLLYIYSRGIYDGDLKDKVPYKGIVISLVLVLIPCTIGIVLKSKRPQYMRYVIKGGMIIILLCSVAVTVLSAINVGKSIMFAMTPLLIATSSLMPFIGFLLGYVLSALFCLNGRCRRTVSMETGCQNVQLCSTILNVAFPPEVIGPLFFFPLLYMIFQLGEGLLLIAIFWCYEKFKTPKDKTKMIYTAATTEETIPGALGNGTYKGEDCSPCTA

hepatocytes = conditions: read-out: IC50, hepatocyte toxicity, cited from earlier work
[2] = summary table, literature; cited from earlier work
[3] = cited from earlier work
[4] = cited from earlier work; remark: listed apart in the source
BSEP = BSEP (Homo sapiens, UniProt O95342); assay: biochemical
Sequence of BSEP (O95342 whole entry): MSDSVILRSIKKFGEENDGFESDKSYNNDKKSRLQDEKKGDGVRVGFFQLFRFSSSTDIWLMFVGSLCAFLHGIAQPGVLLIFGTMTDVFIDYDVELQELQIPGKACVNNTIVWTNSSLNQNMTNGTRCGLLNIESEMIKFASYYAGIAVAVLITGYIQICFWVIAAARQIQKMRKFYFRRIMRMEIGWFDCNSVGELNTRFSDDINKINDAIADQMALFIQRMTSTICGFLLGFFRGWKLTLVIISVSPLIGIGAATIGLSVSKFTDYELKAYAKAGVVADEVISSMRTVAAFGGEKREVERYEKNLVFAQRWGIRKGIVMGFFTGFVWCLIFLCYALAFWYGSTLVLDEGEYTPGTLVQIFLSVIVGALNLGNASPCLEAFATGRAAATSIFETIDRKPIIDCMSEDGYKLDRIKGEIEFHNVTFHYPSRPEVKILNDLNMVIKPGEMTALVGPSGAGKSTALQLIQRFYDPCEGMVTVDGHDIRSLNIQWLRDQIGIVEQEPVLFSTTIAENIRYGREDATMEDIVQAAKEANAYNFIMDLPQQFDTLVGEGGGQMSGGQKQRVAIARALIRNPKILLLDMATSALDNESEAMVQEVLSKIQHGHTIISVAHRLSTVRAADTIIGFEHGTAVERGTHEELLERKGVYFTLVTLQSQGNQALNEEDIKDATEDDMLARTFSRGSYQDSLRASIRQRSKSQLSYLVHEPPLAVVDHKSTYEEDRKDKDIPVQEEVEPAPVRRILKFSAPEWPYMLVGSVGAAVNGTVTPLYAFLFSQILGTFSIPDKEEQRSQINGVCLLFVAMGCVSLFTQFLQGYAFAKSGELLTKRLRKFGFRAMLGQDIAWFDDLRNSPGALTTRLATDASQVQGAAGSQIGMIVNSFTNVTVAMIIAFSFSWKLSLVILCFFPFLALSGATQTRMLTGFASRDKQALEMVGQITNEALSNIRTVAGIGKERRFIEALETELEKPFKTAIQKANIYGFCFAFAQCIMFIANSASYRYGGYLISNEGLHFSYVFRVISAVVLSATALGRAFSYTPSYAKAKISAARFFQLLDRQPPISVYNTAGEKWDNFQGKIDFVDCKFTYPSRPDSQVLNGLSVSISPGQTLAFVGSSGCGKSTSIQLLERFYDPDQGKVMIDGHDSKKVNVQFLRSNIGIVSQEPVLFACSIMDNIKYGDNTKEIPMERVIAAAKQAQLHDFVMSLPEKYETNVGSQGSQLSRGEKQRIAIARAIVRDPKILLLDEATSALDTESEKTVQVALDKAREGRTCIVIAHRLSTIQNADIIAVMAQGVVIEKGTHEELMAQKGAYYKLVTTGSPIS
Method: In the vesicular transport inhibition assay (for BSEP, MRP) compounds were incubated with membrane vesicle preparations and the probe substrate. Incubations were carried out in the presence of 4 mM ATP or AMP to distinguish between transporter-mediated uptake and passive diffusion into the vesicles. For MRP2 and MRP3, reactions were carried out in the presence of 2 mM glutathione. Compounds were added to the reaction mixture in 0.75 μL of solvent (1% of the final incubation volume). […] Reactions were initiated by the addition of 25 μL of 12 mM MgATP (or 12 mM AMP in assay buffer as a background control) and preincubated separately. Reactions were quenched by the addition of 200 μL of ice-cold washing buffer and immediate filtration via glass fiber filters mounted on a 96-well plate (filter plate). The filters were washed (5 × 200 μL of ice-cold washing buffer), dried, and the amount of substrate inside the filtered vesicles was determined by liquid scintillation counting.

[5] = 14-day toxicology study in rats

## Cc1cc(OCCCS(C)(=O)=O)cc(C)c1-c1cccc(COc2ccc3c(c2)OC[C@H]3CC(=O)O)c1 [TAK-875, fasiglifam, reference compound]
[1]; [5]
  effect on ALT: significantly increased ALT at doses of 200 and 600 mg/kg after seven days
  effect on TBA and T-BIL: increased TBA and T-BIL levels at a dose of 600 mg/kg
[1]; Day 1, Dose 200 mg/kg/day
  AUC24h (Mean): 1210000* ng x hr/mL
  Cmax (Mean): 296000* ng/ml
[1]; Day 1, Dose 600 mg/kg/day
  AUC24h (Mean): 2010000* ng x hr/mL
  Cmax (Mean): 465000* ng/ml
[1]; Day 14, Dose 200 mg/kg/day
  AUC24h (Mean): 3740000* ng x hr/mL
  Cmax (Mean): 271000* ng/ml
[1]; Day 14, Dose 600 mg/kg/day
  AUC24h (Mean): 6610000* ng x hr/mL
  Cmax (Mean): 383000* ng/ml
[1]; 200 mg/kg, day 1
  exposure in plasma (AUC): 1210 µg·h/mL
[1]; 200 mg/kg, day 14
  exposure in plasma (AUC): 3740 µg·h/mL
[1]; 600 mg/kg, day 1
  exposure in plasma (AUC): 2010 µg·h/mL
[1]; 600 mg/kg, day 14
  exposure in plasma (AUC): 6610 µg·h/mL
[1]; summary table
  Accumulation in rat plasma after repeat dose: Yes
  Propensity to elevate bile acids and bilirubin in plasma: Yes
NTCP
  IC50: 4.6 µM
hepatocytes; time of incubation 24 h
  IC50: 68 µM
hepatocytes; time of incubation 48 h
  IC50: 56 µM
[2]
  Acyl glucuronide presence in human hepatocytes: Yes
[3]
  long exposure in humans: approximately 30 h
[4]
  plasma protein binding (PPB): > 99.4%
BSEP
  IC50: 47.3 µM
